From patent publication US12485192B2, “Cellular targeted label delivery system” (CELLIS AG, priority 2016, dated 2025) come the findings set out here.

The subject of assay [1] is CD45+ leukocyte cells (macrophages, monocytes, lymphocytes, granulocytes). The assay is described as follows: Uptake of iron binding proteins by CD45+ leukocyte cells in culture. Format: cell-based, mouse. The following applies: incubation 1-4 hrs, 0.1-0.2 mg/ml protein solution, standard culture conditions; FIG. 5. How it is done: Obtained cells are incubated in ferritin solution for a time and at the concentration sufficient to ensure proper ratio of ferritin/cell for their full load and also to ensure proper contrast content to obtain proper imaging). The time and concentration may vary depending on the number of molecules encapsulated/adsorbed into the ferritin cage, status of cell activation, condition and number of their intended administration.
For example, to ensure proper load with ferritins, cells are incubated for 1-4 hrs in ferritin solution 0.2 mg/ml in standard culture conditions. The frame of ferritin concentration may vary at least between 0.01 and 4 mg/ml as well as incubation time (5 min-6 hrs or more). Adjusting time and concentration of ferritin load to cells, the influence of ferritin and treatment conditions on cell viability should be minded.
Obtained cells are incubated in haemoglobin solution for a time and at the concentration sufficient to ensure proper ratio of haemoglobin/cell for their full load and also to ensure proper contrast content to obtain proper imaging. The time and concentration may vary depending on the number of molecules linked with the haemoglobin molecule, status of cell activation, condition and number of their intended administration. […]

The next assay relates to metastatic 4T1 cancer. The note with it: mouse, in vivo, iv. The text has this: After labeling, cells should be centrifuged and supernatant should be removed. This step should be repeated until no radioactivity is detected in the supernatant.

With “transferrin: human holo-transferrin purified from serum of healthy donor”, the “uptake of iron binding protein by cells” value in assay [1] is listed as “very easily uptake”.
As for “haemoglobins: human haemoglobin prepared from fresh red cells”, in assay [1], the “uptake of iron binding protein by cells” value is recorded as “very easily uptake”.
For the substance 18F fluorodeoxyglucose [plain 18F-1-DG], the PET signal result in the assay on metastatic 4T1 cancer was “lower PET signal”.
